Experimental data from publication PMC9138141, “Design, Spectral Characteristics, Photostability, and Possibilities for Practical Application of BODIPY FL-Labeled Thioterpenoid” (Bioengineering, 2022).

How the values were obtained:
[1] = test system: laboratory mice erythrocytes; experiment: Penetration into RBC (fluorescence of hemolysates and of residual medium); type: cell-based
Procedure: To assess the rate of penetration of the BODIPY 2 and its conjugate with a thioterpenoid 6 into RBC, the compounds were added to a suspension of erythrocytes (final concentration 20 μM) and incubated in a thermostatic shaker Biosan ES-20 with slow stirring at 37 °C. After 10, 30, and 60 min, an aliquot was taken and centrifuged to separate erythrocytes from the incubation medium containing the BODIPY 2 or conjugate 6. Erythrocytes were washed three times with PBS, hemolyzed by adding H2O, DMSO was added, and the fluorescence spectra of hemolysates were studied using a Fluorat-02-Panorama spectrofluorometer (Lumex, Saint Petersburg, Russia). The binding of the BODIPY 2 or conjugate 6 to cells was judged from the fluorescence intensity of the corresponding compounds in hemolysates. DMSO was added to the medium (PBS) remaining after cell incubation, and the corresponding fluorescence spectra were also analyzed. Its intensity was used to judge the residual content of the studied compounds in PBS.

[2] = test system: laboratory mice erythrocytes; experiment: Hemolytic activity (erythrotoxicity); type: cell-based; conditions: 20 µM, entire incubation period 5 h, 37 °C, PBS pH 7.4
Procedure: A 0.5% (v/v) suspension of laboratory mice erythrocytes in phosphate-buffered saline (PBS, pH 7.4) was used. The hemolytic activity (erythrotoxicity) of the compounds 2 and 6 was assessed by the degree of erythrocyte hemolysis 1, 3, and 5 h after the addition of solutions of the test compounds in DMSO (final concentration 20 μM). The erythrocyte suspension was incubated in a thermostatic shaker Biosan ES-20 with slow stirring at 37 °C temperature for 5 h. After 1, 3, and 5 h, an aliquot was taken, centrifuged, the degree of hemolysis was determined by the hemoglobin content in the supernatant on a Thermo Spectromic Genesys 20 spectrophotometer at λ = 541 nm. The percentage of hemolysis was calculated relative to the total hemolysis of the sample.

[3] = Photobleaching (photodegradation) under UV irradiation at 365 nm; type: physicochemical
Procedure: The photofading was carried out in quartz cells. The BODIPY solutions in cyclohexane (toluene, 1-octanol, DMSO with c = ~1·10^−5 mol·L^−1) were irradiated with monochromatic light (mercury lamp 250 W with a light filter Carl Zeiss JENA, at λ = 365 nm and room temperature). The area of the light flux was 2.02 cm^2 at a specific power W365 = 4.04 mW·cm^−2 of the UV lamp. The irreversible bleaching of the luminophores at the absorption peak was monitored as a function of time. The EAS of the dye solution was recorded at equal intervals of irradiation (through 5–20 min) on a spectrofluorometer SM2203 in the 300–600 nm wavelength range. The half-life (t1/2) was defined as the time during which the chromophore is destroyed by 50%. The error in determining of t1/2 is 3–5%.
The observed photooxidation rate constants (kobs) were determined by the equation ln(At/A0) = kobs∙t, where A0 and At are the initial and current optical density at the maximum of the long-wavelength absorption band, respectively, and t is the time of irradiation of the sample with UV light.

[4] = Electronic absorption spectra in organic solvents; type: physicochemical
Procedure: (§1) The absorption and emission spectra of dyes solutions (in the range of 10^−6 to 10^−5 M) were recorded on CM 2203 spectrofluorometer (SOLAR) in a 10 mm of absorbing layer thickness at T = 25 ± 0.1 °C. The fluorescence quantum yield (φ), the fluorescence lifetime (τ), the rate constants of radiative processes (krad), and-radiative deactivation (knr) were obtained to use by the standard procedure. The fluorescence quantum yields (φ) of compounds were measured using the standard method (using standard Rhodamine 6G). The φ and τ errors were 10–15 %. The Stokes shift ( ΔλSt ) was calculated by the formula: […]

[5] = Luminescent characteristics (fluorescence) in organic solvents; type: physicochemical; conditions: for λmaxfl: λex 470 nm
Procedure: as §1

RBC = experiment: Uptake by erythrocytes visualized with CytoFLEX; type: cell-based, mice; conditions: 0.1 µM, 10 min, 488/521 nm λex/λem
Procedure: The uptake of compounds by erythrocytes was visualized using CytoFLEX SRT (Beckman Coulter) (0.2% suspension of RBC, compound concentration 0.1 μM), exposure time 10 min. Each experiment was carried out in 5–15 replicates. Statistical analysis was conducted using Microsoft Office Excel 2007 software packages. The data represent the mean ± SE.

[6] = Solubility in water / micellar solution (NMR samples); type: physicochemical; conditions: DPC micelles, D2O
[7] = range over the solvents studied

In the case of `CC1=CC(C)=[N+]2C1=C(CCCC(=O)OCCSC1CC3CCC1(C)C3(C)C)c1c(C)cc(C)n1[B-]2(F)F` (stereo not shown) [Compound 6], the “penetration into erythrocytes (fluorescence of RBC hemolysates)” value ([1]; 20 μM, 10, 30, 60 min incubation, RBC washed three times with PBS) is reported as “actively penetrates erythrocytes”, the “absorption by RBC from the incubation medium (decline of supernatant fluorescence)” value ([1]; 20 μM, 60 min incubation, PBS) is reported as “more intensively than the initial BODIPY 2” and the “hemolysis of RBC (erythrotoxicity)” value [2] is reported as “did not exceed the spontaneous level”. The “increase of photodegradation (photooxidation) efficiency in DMSO” value ([3]; DMSO compared to cyclohexane) was > 10 times, the “increase of photostability compared to the meso-unsubstituted analog” value ([3]; UV irradiation) was ~ 2 times and the “half-life increase / photodestruction rate constant decrease compared to 7” value ([3]; studied solvents) was 1.5–2.2 times. For the same compound, the “ε, molar absorption coefficient” value ([4]; 1-butanol) was 66887 L/mol/cm, the “λmaxabs S0→S1” value ([4]; 1-butanol) was 501 nm and the “λmaxabs S0→S2” value ([4]; 1-butanol) was 355–366 nm. For the same compound, the “ε, molar absorption coefficient” value ([4]; 1-octanol) was 68275 L/mol/cm, the “λmaxabs S0→S1” value ([4]; 1-octanol) was 501 nm and the “λmaxabs S0→S2” value ([4]; 1-octanol) was 355–363 nm. The “ε, molar absorption coefficient” value ([4]; 1-propanol) was 68931 L/mol/cm, the “λmaxabs S0→S1” value ([4]; 1-propanol) was 500 nm and the “λmaxabs S0→S2” value ([4]; 1-propanol) was 356–361 nm. The “ε, molar absorption coefficient” value ([4]; DMF) was 70218 L/mol/cm, the “λmaxabs S0→S1” value ([4]; DMF) was 499 nm and the “λmaxabs S0→S2” value ([4]; DMF) was 357–361 nm. The “ε, molar absorption coefficient” value ([4]; DMSO) was 68188 L/mol/cm, the “λmaxabs S0→S1” value ([4]; DMSO) was 500 nm and the “λmaxabs S0→S2” value ([4]; DMSO) was 355–360 nm. For the same compound, the “extinction coefficient ɛ, range” value ([4]; at 498–503 nm, organic solvents, in L/mol·cm) was 64,000–78,000, the “ε, molar absorption coefficient” value ([4]; chloroform) was 76900 L/mol/cm and the “λmaxabs S0→S1” value ([4]; chloroform) was 503 nm. For the same compound, the “λmaxabs S0→S2” value ([4]; chloroform) was 352–363 nm, the “ε, molar absorption coefficient” value ([4]; cyclohexane) was 75390 L/mol/cm and the “λmaxabs S0→S1” value ([4]; cyclohexane) was 502 nm. For the same compound, the “λmaxabs S0→S2” value ([4]; cyclohexane) was 357–362 nm, the “ε, molar absorption coefficient” value ([4]; ethanol) was 64235 L/mol/cm and the “λmaxabs S0→S1” value ([4]; ethanol) was 498 nm. For the same compound, the “λmaxabs S0→S2” value ([4]; ethanol) was 359–361 nm, the “ε, molar absorption coefficient” value ([4]; toluene) was 78830 L/mol/cm and the “λmaxabs S0→S1” value ([4]; toluene) was 503 nm. The “λmaxabs S0→S2” value ([4]; toluene) was 352–360 nm, the “ΔλSt, Stokes shift” value ([5]; 1-butanol) was 15 nm and the “φ, fluorescence quantum yield” value ([5]; 1-butanol) was 0.884. For the same compound, the λmaxfl ([5]; 1-butanol) was 516 nm, the “ΔλSt, Stokes shift” value ([5]; 1-octanol) was 13 nm and the “φ, fluorescence quantum yield” value ([5]; 1-octanol) was 0.941. For the same compound, the λmaxfl ([5]; 1-octanol) was 514 nm, the “ΔλSt, Stokes shift” value ([5]; 1-propanol) was 14 nm and the “φ, fluorescence quantum yield” value ([5]; 1-propanol) was 0.861. The λmaxfl ([5]; 1-propanol) was 514 nm, the “ΔλSt, Stokes shift” value ([5]; DMF) was 16 nm and the “φ, fluorescence quantum yield” value ([5]; DMF) was 0.833. For the same compound, the “increase of nonradiative deactivation constant knr” value ([5]; DMF and DMSO compared to cyclohexane) was 200–300 times, the λmaxfl ([5]; DMF) was 515 nm and the “ΔλSt, Stokes shift” value ([5]; DMSO) was 15 nm. The “φ, fluorescence quantum yield” value ([5]; DMSO) was 0.763, the λmaxfl ([5]; DMSO) was 515 nm and the “fluorescence quantum yield φ, range” value ([5]; at 514–519 nm, organic solvents) was 76–100%. For the same compound, the “ΔλSt, Stokes shift” value ([5]; chloroform) was 14 nm, the “φ, fluorescence quantum yield” value ([5]; chloroform) was 0.878 and the λmaxfl ([5]; chloroform) was 517 nm. For the same compound, the “ΔλSt, Stokes shift” value ([5]; cyclohexane) was 13 nm, the “φ, fluorescence quantum yield” value ([5]; cyclohexane) was 0.999 and the λmaxfl ([5]; cyclohexane) was 515 nm. The fluorescence quenching ([5]; electron-donating media) was 16–24%, the “ΔλSt, Stokes shift” value ([5]; ethanol) was 16 nm and the “φ, fluorescence quantum yield” value ([5]; ethanol) was 0.857. For the same compound, the “increase of fluorescence quantum yield in the homologous series of alcohols” value ([5]; ethanol, 1-propanol, 1-butanol, 1-octanol) was ~ 8%, the λmaxfl ([5]; ethanol) was 514 nm and the “constants of radiative processes (krad)” value [5, 7] was 5.96–8.33 × 10^7 s^−1. The fluorescence lifetime [5, 7] was 10.2–16.0 ns, the “ΔλSt, Stokes shift” value ([5]; toluene) was 16 nm and the “φ, fluorescence quantum yield” value ([5]; toluene) was 0.867. The λmaxfl ([5]; toluene) was 519 nm, the “emission band maxima λmaxfl, range” value ([5]; λex = 470 nm, all solvents) was 510–519 nm and the “relative content of BODIPY-positive cells” value (RBC) was “more than an order of magnitude higher”.
For `CC1(C)C2CC=C(CO)C1C2` (stereo not shown) [myrtenol], the “solubility in the micellar solution” value [6] was “better solubility”.
